US6964949B2, “Pharmaceutical compositions for promoting the growth of gram-positive bacilli and increasing the acidity in the vagina and the use thereof” (Shanghai Jiao Da Onlly Co., Ltd., priority 2000, dated 2005)

Columns and labels:
Format in all cases: cell-based
Details in all cases: 10.0% saccharide, 1.0% yeast extract, 1.6% xanthan gum (dextrin 0.5%, starch none), pH 6.2, candle jar, 37° C.
[1] = system: Gram-negative bacilli; test: Experiment Example 2: comparison of saccharides, specimen culture, Gram smear
Source text: (§1) • (1)The preparation of the compositions: Different saccharides were used respectively to prepare the following compositions according to the methods mentioned above: glucose, fructose, galactose, mannose, maltose, sucrose, lactose, lactulose, mycose, cellobiose, melibiose, melitose, malto-oligosaccharide, isomaltooligosaccharide and fructooligosaccharide, dextrin, starch, and glycogen: • A. 5% glucose, 1.0% yeast extract, 1.6% xanthan gum, pH adjusted to 6.2; • B. 5% fructose, 1.0% yeast extract, 1.6% xanthan gum, pH adjusted to 6.2; • C. 5% galactose, 1.0% yeast extract, 1.6% xanthan gum, pH adjusted to 6.2; • D. 5% mannose, 1.0% yeast extract, 1.6% xanthan gum, pH adjusted to 6.2; • E. 10.0% maltose, 1.0% yeast extract, 1.6% xanthan gum, pH adjusted to 6.2; • F. 10.0% sucrose, 1.0% yeast extract, 1.6% xanthan gum, pH adjusted to 6.2; • G. 10.0% lactose, 1.0% yeast extract, 1.6% xanthan gum, pH adjusted to 6.2; • H. 10.0% lactulose, 1.0% yeast extract, 1.6% xanthan gum, pH adjusted to 6.2; • I. 10.0% cellobiose, 1.0% yeast extract, 1.6% xanthan gum, pH adjusted to 6.2; • J. 10.0% mycose, 1.0% yeast extract, 1.6% xanthan gum, pH adjusted to 6.2; • K. 10.0% melibiose, 1.0% yeast extract, 1.6% xanthan gum, pH adjusted to 6.2; • L. 10.0% melitose, 1.0% yeast extract, 1.6% xanthan gum, pH adjusted to 6.2; • M. 10.0% maltooligosaccharide, 1.0% yeast extract, 1.6% xanthan gum, pH adjusted to 6.2; • N. 10.0% isomaltooligosaccharide, 1.0% yeast extract, 1.6% xanthan gum, pH adjusted to 6.2; • O. 10.0% fructooligosaccharide, 1.0% yeast extract, 1.6% xanthan gum, pH adjusted to 6.2; • P. 10.0% dextrin, 1.0% yeast extract, 0.5% xanthan gum, pH adjusted to 6.2; • Q. 10.0% starch, 1.0% yeast extract, pH adjusted to 6.2; • R. 10.0% glycogen, 1.0% yeast extract, 1.6% xanthan gum, pH adjusted to 6.2. • (2)The preparation of the test tubes: The compositions prepared above were filled into test tubes, with each tube containing 5 ml, sterilized, and kept until use for experiment. • (3) Specimen suspension: Vaginal secretion was taken from one of the patients suffering from typical bacterial vagmosis with a cotton swab, then the swab was washed in 2 ml sterilized Trypcase-soy Broth immediately, and thus the specimen suspension was ready. […] Then the tubes were placed in a candle jar and cultivated at 37° C. After 24 hours and 48 hours' culture, culture samples were taken respectively from each of the tubes, then the Gram smears of the samples were observed and the pH values of culture samples were tested. […] Meanwhile the pH values in most of the composition tubes decreased to different levels. […] And maltose and sucrose exert better effect in promoting the growth of Gram-positive bacilli and the production of acids than that of the other kinds of oligosaccharides.

[2] = system: Gram-negative cocci; test: as above
Source text: as §1

[3] = system: Gram-positive bacilli; test: as above
Source text: as §1

[4] = system: Gram-positive cocci; test: as above
Source text: as §1

[5] = system: vaginal secretion specimen of a patient suffering from typical bacterial vaginosis; test: Experiment Example 2: pH of culture samples (production of acids)
Source text: as §1

Compound: OC[C@H]1O[C@H](O[C@H]2O[C@H](CO)[C@@H](O)[C@H](O)[C@H]2O)[C@H](O)[C@@H](O)[C@@H]1O [Mycose, mycose]
- Bacteria G − b (Gram-negative bacilli), 24 hours-culture [1]: G − b, + (1-9 bacteria per field of vision under oil-immersion lens)
- Bacteria G − b (Gram-negative bacilli), 48 hours-culture [1]: G − b, ++ (About 10-99 bacteria per field of vision under oil-immersion lens)
- Bacteria G − c (Gram-negative cocci), 24 hours-culture [2]: G − c, − (No or less than one bacterium per field of version under oil-immersion lens)
- Bacteria G − c (Gram-negative cocci), 48 hours-culture [2]: G − c, − (No or less than one bacterium per field of version under oil-immersion lens)
- Bacteria G + b (Gram-positive bacilli), 24 hours-culture [3]: G + b, ++ (About 10-99 bacteria per field of vision under oil-immersion lens)
- Bacteria G + b (Gram-positive bacilli), 48 hours-culture [3]: G + b, +++ (About 100 bacteria or more per field vision under oil-immersion lens, even uncountable)
- Bacteria G + c (Gram-positive cocci), 24 hours-culture [4]: G + c, + (1-9 bacteria per field of vision under oil-immersion lens)
- Bacteria G + c (Gram-positive cocci), 48 hours-culture [4]: G + c, + (1-9 bacteria per field of vision under oil-immersion lens)
- pH, 24 hours-culture [5]: 4.8
- pH, 48 hours-culture [5]: 4.6-4.8

Compound: dextrin
- Bacteria G − b (Gram-negative bacilli), 24 hours-culture [1]: G − b, ++ (About 10-99 bacteria per field of vision under oil-immersion lens)
- Bacteria G − b (Gram-negative bacilli), 48 hours-culture [1]: G − b, + (1-9 bacteria per field of vision under oil-immersion lens)
- Bacteria G − c (Gram-negative cocci), 24 hours-culture [2]: G − c, − (No or less than one bacterium per field of version under oil-immersion lens)
- Bacteria G − c (Gram-negative cocci), 48 hours-culture [2]: G − c, − (No or less than one bacterium per field of version under oil-immersion lens)
- Bacteria G + b (Gram-positive bacilli), 24 hours-culture [3]: G + b, +++ (About 100 bacteria or more per field vision under oil-immersion lens, even uncountable)
- Bacteria G + b (Gram-positive bacilli), 48 hours-culture [3]: G + b, ++ (About 10-99 bacteria per field of vision under oil-immersion lens)
- Bacteria G + c (Gram-positive cocci), 24 hours-culture [4]: G + c, + (1-9 bacteria per field of vision under oil-immersion lens)
- Bacteria G + c (Gram-positive cocci), 48 hours-culture [4]: G + c, − (No or less than one bacterium per field of version under oil-immersion lens)
- pH, 24 hours-culture [5]: 6.2
- pH, 48 hours-culture [5]: 5.8

Compound: glycogen
- Bacteria G − b (Gram-negative bacilli), 24 hours-culture [1]: G − b, ++ (About 10-99 bacteria per field of vision under oil-immersion lens)
- Bacteria G − b (Gram-negative bacilli), 48 hours-culture [1]: G − b, ++ (About 10-99 bacteria per field of vision under oil-immersion lens)
- Bacteria G − c (Gram-negative cocci), 24 hours-culture [2]: G − c, − (No or less than one bacterium per field of version under oil-immersion lens)
- Bacteria G − c (Gram-negative cocci), 48 hours-culture [2]: G − c, − (No or less than one bacterium per field of version under oil-immersion lens)
- Bacteria G + b (Gram-positive bacilli), 24 hours-culture [3]: G + b, ++ (About 10-99 bacteria per field of vision under oil-immersion lens)
- Bacteria G + b (Gram-positive bacilli), 48 hours-culture [3]: G + b, +++ (About 100 bacteria or more per field vision under oil-immersion lens, even uncountable)
- Bacteria G + c (Gram-positive cocci), 24 hours-culture [4]: G + c, + (1-9 bacteria per field of vision under oil-immersion lens)
- Bacteria G + c (Gram-positive cocci), 48 hours-culture [4]: G + c, + (1-9 bacteria per field of vision under oil-immersion lens)
- pH, 24 hours-culture [5]: 6.4
- pH, 48 hours-culture [5]: 6.2

Compound: starch
- Bacteria G − b (Gram-negative bacilli), 24 hours-culture [1]: G − b, ++ (About 10-99 bacteria per field of vision under oil-immersion lens)
- Bacteria G − b (Gram-negative bacilli), 48 hours-culture [1]: G − b, ++ (About 10-99 bacteria per field of vision under oil-immersion lens)
- Bacteria G − c (Gram-negative cocci), 24 hours-culture [2]: G − c, − (No or less than one bacterium per field of version under oil-immersion lens)
- Bacteria G − c (Gram-negative cocci), 48 hours-culture [2]: G − c, − (No or less than one bacterium per field of version under oil-immersion lens)
- Bacteria G + b (Gram-positive bacilli), 24 hours-culture [3]: G + b, ++ (About 10-99 bacteria per field of vision under oil-immersion lens)
- Bacteria G + b (Gram-positive bacilli), 48 hours-culture [3]: G + b, ++ (About 10-99 bacteria per field of vision under oil-immersion lens)
- Bacteria G + c (Gram-positive cocci), 24 hours-culture [4]: G + c, + (1-9 bacteria per field of vision under oil-immersion lens)
- Bacteria G + c (Gram-positive cocci), 48 hours-culture [4]: G + c, + (1-9 bacteria per field of vision under oil-immersion lens)
- pH, 24 hours-culture [5]: 6.7
- pH, 48 hours-culture [5]: 6.2
